Experiment [1] in a line: Competitive experiment: Zn^2+ detection in presence of other metal ions. The following applies: Zn^2+ solution (10 NM) plus other metal ion of the same concentration; FIG. 3. Here is the method:
In order to further verify the specificity of the zinc ion fluorescent probe compound to the zinc ion, a competitive experiment was conducted: adding the Zn^2+ solution (10 NM) into the probe solution formulated in step (1) together with a solution of any other one of the aforesaid metal ions of the same concentration; testing the effects of other competitive ions on the Zn^2+ selectivity of the zinc ion fluorescent probe compound respectively. The test results were shown in FIG. 3 (all test solution was uniformly labeled as “zinc ion fluorescent probe compound+M+Zn”).

Experiment [2] can be described thus: Fluorescence titration with different concentrations of Zn^2+ (detection range and limit). The following applies: Zn^2+ concentration 4×10^-6 M; FIG. 4. Here is the method:
Different concentrations of Zn^2+ were added into the probe solution formulated in step (1) to test the fluorescence property of the probe solution, so as to determine the detection range and detection limit for Zn^2+ of the fluorescent probe compound.

Experiment [3] is described as follows: Fluorescence property test of probe with other metal ion solutions. The following applies: Mg^2+, Fe^2+, Cu^+, Cu^2+, Sn^4+, Co^2+, Mn^2+, K^+, Li^+, Ba^2+, Ca^2+, Cd^2+, Ni^2+, Fe^3+ or Al^3+; CH3OH-H2O (v:v=1:1); FIG. 3. Here is the method: (§1) The fluorescence property of the fluorescent probe compound according to the present disclosure was measured, including the following steps:
(§2) (1) Formulating a Probe Solution:
(§3) formulating a solution of 2-(7-(2,8-dimethyl quinoline-6-yl)-5,6,7,8-tetrahydro-1,8-naphthyridin-2-yl) phenol with a concentration of 100 μM in methanol, i.e. a probe solution, and stored at room temperature.
(§4) (2) Formulating Metal Ion Solutions: […]
(§5) the metal ions including: Mg^2+, Fe^2+, Cu^+, Cu^2+, Sn^4+, Co^2+, Mn^2+, K^+, Li^+, Ba^2+, Ca^2+, Cd^2+, Ni^2+, Fe^3+, Al^3+ and Zn^2+; and the respectively solutions of them were prepared from the corresponding hydrochloride salts thereof. Taking a certain amount of metal salts, dissolved in 10 mL of distilled water to formulate a 10-2 mol/L metal ion solution, and stored for later use.
(§6) (3) Fluorescence Property Test:
(§7) formulating solution to be tested: taking 0.5 mL of the formulated probe solution and 0.5 mL of the formulated metal ion solution, mixing with 4 mL solution of a CH3OH—H2O (v:v=1:1) to obtain a solution to be tested of the metal ion.
(§8) formulating blank solution: taking 0.5 mL of the formulated probe solution, mixed with solution of 2.5 mL water and 2 mL methanol.
(§9) analyzing the fluorescence intensity of solution to be tested by fluorescence spectrum, and the analysis result was shown in FIG. 3.

Experiment [4] in a line: Fluorescence property test of probe with metal ion solution. Particulars: Zn^2+ solution; CH3OH-H2O (v:v=1:1); FIG. 3. Here is the method: as §1, §2, §3, §4, §5, §6, §7, §8, §9

For `Cc1ccc2cc(C3CCc4ccc(-c5ccccc5O)nc4N3)cc(C)c2n1` (stereo not shown) [fluorescent probe compound, 2-(7-(2,8-dimethylquinoline-6-yl)-5,6,7,8-tetrahydro-1,8-naphthyridin-2-yl) phenol], the “change of Zn^2+ detection before and after addition of other competitive ions” value in experiment [1] is on record as “almost no change”. The “fluorescence intensity of the compound” value in experiment [2] was “dramatic decay”. For the same compound, the “fluorescence intensity change (F/F0) of the solution to be tested” value in experiment [3] is listed as “changed slightly”; in experiment [4], “significant fluorescence decay”.
